Experimental data published in patent US20240415914A1, “Water Dispersible Cannabinoid Compositions” (priority 2021, published 2024).

Experiment: Stability of cannabinoid and Vitamin E components of Beverage 1 (AB White) stored at 8° C. and 21-25° C., LCMSMS over 570 days
Type: physicochemical
Conditions: for Chemical stability over the entire period (result in words): AB White, 570 days; for Stability in AB White, 8° C. (content by LCMSMS): beverage stored at 8° C.; for Stability in AB White, 21-25° C. (content by LCMSMS): beverage stored at 21-25° C.
Method: The LCMSMS was calibrated for 0-1000 ng/ml cannabinoids with the same resin material used in the preparation of the concentrates. At each time period, 100 ml of beverage was diluted with 10 ml of methanol and injected into the LCMSMS for analysis.

For `CCCCCc1cc(O)c2c(c1)OC(C)(C)[C@@H]1CCC(C)=C[C@@H]21` [D9 THC, delta-9-tetrahydrocannabinol, reference compound], the “Chemical stability over the entire period (result in words)” value (stored at 8° C.) was “high degree of stability”, the “Chemical stability over the entire period (result in words)” value (stored at 21-25° C.) was “high degree of stability” and the “Stability in AB White, 8° C. (content by LCMSMS)” value (day 0) was 12.2 µg/mL. For the same compound, the “Stability in AB White, 8° C. (content by LCMSMS)” value (day 1) was 12.20 µg/mL, the “Stability in AB White, 8° C. (content by LCMSMS)” value (day 2) was 11.91 µg/mL and the “Stability in AB White, 8° C. (content by LCMSMS)” value (day 3) was 12.25 µg/mL. The “Stability in AB White, 8° C. (content by LCMSMS)” value (day 5) was 12.11 µg/mL, the “Stability in AB White, 8° C. (content by LCMSMS)” value (day 8) was 11.83 µg/mL and the “Stability in AB White, 8° C. (content by LCMSMS)” value (day 9) was 12.14 µg/mL. The “Stability in AB White, 8° C. (content by LCMSMS)” value (day 10) was 12.07 µg/mL, the “Stability in AB White, 8° C. (content by LCMSMS)” value (day 11) was 11.83 µg/mL and the “Stability in AB White, 8° C. (content by LCMSMS)” value (day 12) was 11.88 µg/mL. For the same compound, the “Stability in AB White, 8° C. (content by LCMSMS)” value (day 15) was 12.08 µg/mL, the “Stability in AB White, 8° C. (content by LCMSMS)” value (day 16) was 12.18 µg/mL and the “Stability in AB White, 8° C. (content by LCMSMS)” value (day 17) was 12.05 µg/mL. The “Stability in AB White, 8° C. (content by LCMSMS)” value (day 18) was 12.00 µg/mL, the “Stability in AB White, 8° C. (content by LCMSMS)” value (day 19) was 12.11 µg/mL and the “Stability in AB White, 8° C. (content by LCMSMS)” value (day 22) was 11.97 µg/mL. The “Stability in AB White, 8° C. (content by LCMSMS)” value (day 23) was 12.03 µg/mL, the “Stability in AB White, 8° C. (content by LCMSMS)” value (day 24) was 11.87 µg/mL and the “Stability in AB White, 8° C. (content by LCMSMS)” value (day 25) was 11.99 µg/mL. For the same compound, the “Stability in AB White, 8° C. (content by LCMSMS)” value (day 26) was 11.97 µg/mL, the “Stability in AB White, 8° C. (content by LCMSMS)” value (day 29) was 12.25 µg/mL and the “Stability in AB White, 8° C. (content by LCMSMS)” value (day 30) was 12.05 µg/mL. For the same compound, the “Stability in AB White, 8° C. (content by LCMSMS)” value (day 60) was 11.77 µg/mL, the “Stability in AB White, 8° C. (content by LCMSMS)” value (day 90) was 11.92 µg/mL and the “Stability in AB White, 8° C. (content by LCMSMS)” value (day 120) was 11.79 µg/mL. For the same compound, the “Stability in AB White, 8° C. (content by LCMSMS)” value (day 150) was 12.07 µg/mL, the “Stability in AB White, 8° C. (content by LCMSMS)” value (day 180) was 11.66 µg/mL and the “Stability in AB White, 8° C. (content by LCMSMS)” value (day 210) was 11.79 µg/mL. The “Stability in AB White, 8° C. (content by LCMSMS)” value (day 240) was 11.70 µg/mL, the “Stability in AB White, 8° C. (content by LCMSMS)” value (day 270) was 11.98 µg/mL and the “Stability in AB White, 8° C. (content by LCMSMS)” value (day 300) was 11.70 µg/mL. The “Stability in AB White, 8° C. (content by LCMSMS)” value (day 330) was 11.68 µg/mL, the “Stability in AB White, 8° C. (content by LCMSMS)” value (day 360) was 11.88 µg/mL and the “Stability in AB White, 8° C. (content by LCMSMS)” value (day 390) was 11.85 µg/mL. For the same compound, the “Stability in AB White, 8° C. (content by LCMSMS)” value (day 420) was 11.77 µg/mL, the “Stability in AB White, 8° C. (content by LCMSMS)” value (day 450) was 11.80 µg/mL and the “Stability in AB White, 8° C. (content by LCMSMS)” value (day 480) was 11.60 µg/mL. The “Stability in AB White, 8° C. (content by LCMSMS)” value (day 510) was 11.33 µg/mL, the “Stability in AB White, 8° C. (content by LCMSMS)” value (day 540) was 11.27 µg/mL and the “Stability in AB White, 8° C. (content by LCMSMS)” value (day 570) was 11.21 µg/mL. For the same compound, the “Stability in AB White, 21-25° C. (content by LCMSMS)” value (day 0) was 12.2 µg/mL, the “Stability in AB White, 21-25° C. (content by LCMSMS)” value (day 1) was 11.8 µg/mL and the “Stability in AB White, 21-25° C. (content by LCMSMS)” value (day 2) was 12.0 µg/mL. For the same compound, the “Stability in AB White, 21-25° C. (content by LCMSMS)” value (day 3) was 11.9 µg/mL, the “Stability in AB White, 21-25° C. (content by LCMSMS)” value (day 5) was 12.1 µg/mL and the “Stability in AB White, 21-25° C. (content by LCMSMS)” value (day 8) was 12.3 µg/mL. The “Stability in AB White, 21-25° C. (content by LCMSMS)” value (day 9) was 11.8 µg/mL, the “Stability in AB White, 21-25° C. (content by LCMSMS)” value (day 10) was 11.7 µg/mL and the “Stability in AB White, 21-25° C. (content by LCMSMS)” value (day 11) was 12.1 µg/mL. The “Stability in AB White, 21-25° C. (content by LCMSMS)” value (day 12) was 11.9 µg/mL, the “Stability in AB White, 21-25° C. (content by LCMSMS)” value (day 15) was 12.1 µg/mL and the “Stability in AB White, 21-25° C. (content by LCMSMS)” value (day 16) was 12.1 µg/mL. The “Stability in AB White, 21-25° C. (content by LCMSMS)” value (day 17) was 11.9 µg/mL, the “Stability in AB White, 21-25° C. (content by LCMSMS)” value (day 18) was 11.8 µg/mL and the “Stability in AB White, 21-25° C. (content by LCMSMS)” value (day 19) was 12.3 µg/mL. The “Stability in AB White, 21-25° C. (content by LCMSMS)” value (day 22) was 11.9 µg/mL, the “Stability in AB White, 21-25° C. (content by LCMSMS)” value (day 23) was 12.0 µg/mL and the “Stability in AB White, 21-25° C. (content by LCMSMS)” value (day 24) was 12.1 µg/mL. The “Stability in AB White, 21-25° C. (content by LCMSMS)” value (day 25) was 12.3 µg/mL, the “Stability in AB White, 21-25° C. (content by LCMSMS)” value (day 26) was 12.1 µg/mL and the “Stability in AB White, 21-25° C. (content by LCMSMS)” value (day 29) was 11.9 µg/mL. For the same compound, the “Stability in AB White, 21-25° C. (content by LCMSMS)” value (day 30) was 11.9 µg/mL, the “Stability in AB White, 21-25° C. (content by LCMSMS)” value (day 60) was 11.9 µg/mL and the “Stability in AB White, 21-25° C. (content by LCMSMS)” value (day 90) was 12.0 µg/mL. For the same compound, the “Stability in AB White, 21-25° C. (content by LCMSMS)” value (day 120) was 11.7 µg/mL, the “Stability in AB White, 21-25° C. (content by LCMSMS)” value (day 150) was 11.7 µg/mL and the “Stability in AB White, 21-25° C. (content by LCMSMS)” value (day 180) was 11.9 µg/mL. For the same compound, the “Stability in AB White, 21-25° C. (content by LCMSMS)” value (day 210) was 11.4 µg/mL, the “Stability in AB White, 21-25° C. (content by LCMSMS)” value (day 240) was 11.7 µg/mL and the “Stability in AB White, 21-25° C. (content by LCMSMS)” value (day 270) was 11.9 µg/mL. The “Stability in AB White, 21-25° C. (content by LCMSMS)” value (day 300) was 12.0 µg/mL, the “Stability in AB White, 21-25° C. (content by LCMSMS)” value (day 330) was 11.4 µg/mL and the “Stability in AB White, 21-25° C. (content by LCMSMS)” value (day 360) was 11.7 µg/mL. The “Stability in AB White, 21-25° C. (content by LCMSMS)” value (day 390) was 11.4 µg/mL, the “Stability in AB White, 21-25° C. (content by LCMSMS)” value (day 420) was 11.7 µg/mL and the “Stability in AB White, 21-25° C. (content by LCMSMS)” value (day 450) was 11.7 µg/mL. The “Stability in AB White, 21-25° C. (content by LCMSMS)” value (day 480) was 11.2 µg/mL, the “Stability in AB White, 21-25° C. (content by LCMSMS)” value (day 510) was 11.2 µg/mL and the “Stability in AB White, 21-25° C. (content by LCMSMS)” value (day 540) was 11.2 µg/mL. For the same compound, the “Stability in AB White, 21-25° C. (content by LCMSMS)” value (day 570) was 11.2 µg/mL.
